Source: patent US20130252930A1 (BIOMARIN PHARMACEUTICAL INC., priority 2010, published 2013)
Read-outs that look alike come from different tables or passages of the source.

Experiments:
[1] = Rat liver microsome stability assay (Biological Example 8a); conditions: liver microsomes, pH 7.4
Protocol: Each test compound (1.5 μM, 30 μL) was incubated with rat (BD Gentest, Cat No. 452501) or human (BD Gentest, Cat No. 452161) liver microsomes (0.75 mg/mL, 0.1 M potassium phosphate buffer, 1.0 mM EDTA, pH 7.4) in 96 well plates. The reaction was started with addition of excess NADPH (5 mg/mL, 15 μL in 0.1 M potassium phosphate buffer, 1.0 mM EDTA, pH 7.4), the total volume is 45 μL (compound final concentration was 1 μM). The incubations were terminated at time zero and at 5, 15, 30, and 60 minutes by addition of 135 μL/excess ACN containing internal standard (1S). After quenching, the reaction mixtures was centrifuged (Eppendorf Centrifuge 5810R) at 3220×g for 10 min (4° C.). 50 μL of the supernatant was transferred from each well into a 96-well sample plate containing 50 μL of ultra-pure water (Millipore) for LC-MS/MS analysis. The half-life T1/2=0.693/K (K is the rate constant from a plot of log [concentration] vs. incubation time) was calculated.

[2] = target: T1, CYP17 (human testicular microsome) (Homo sapiens, UniProt P05093); assay: CYP17 enzymatic assay (% inhibition at 10 nM), version 1 (Biological Example 5); type: biochemical
T1 construct: using microsomal fraction from human testis (Celsis Cat #S00110) as the enzyme source; tissue Celsis S00110; host or cells: human testis microsomal fraction
T1 sequence (P05093 1-508): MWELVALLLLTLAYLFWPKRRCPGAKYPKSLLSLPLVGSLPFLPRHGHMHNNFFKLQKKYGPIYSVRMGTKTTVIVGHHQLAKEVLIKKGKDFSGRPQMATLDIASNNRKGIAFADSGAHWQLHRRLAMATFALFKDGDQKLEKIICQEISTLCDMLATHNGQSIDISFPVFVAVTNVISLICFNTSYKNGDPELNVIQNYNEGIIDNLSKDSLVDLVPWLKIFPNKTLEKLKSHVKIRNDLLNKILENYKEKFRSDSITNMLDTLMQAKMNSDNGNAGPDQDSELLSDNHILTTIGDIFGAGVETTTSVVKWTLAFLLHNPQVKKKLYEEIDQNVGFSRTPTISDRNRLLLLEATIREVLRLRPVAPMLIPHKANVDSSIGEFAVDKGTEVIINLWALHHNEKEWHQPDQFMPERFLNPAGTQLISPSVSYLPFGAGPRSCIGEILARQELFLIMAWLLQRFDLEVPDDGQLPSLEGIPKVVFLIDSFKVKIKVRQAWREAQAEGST
Protocol: The assays were performed in 96-well plates. Typical assays were carried out in total 100 μL volume that included test compounds at 10 nM concentration, 1× reaction buffer, 0.5 mM NADPH, 1 μM 17α-hydroxypregnenolone, and 2.5 μL of diluted human testicular microsome (Celsis. Cat #S00110). Reaction without test compound served as positive control. Reactions were allowed to incubate at 37° C. for 90 minutes with gentle shaking. The reaction was stopped by directly applying the enzymatic reaction mixture to ELISA plate for evaluation of DHEA concentration according to manufacturer's protocol (IBL America). A standard curve (OD450 vs. DHEA concentration) was generated using purified DHEA. […] Percent inhibition (inhibition %) of the compound was calculated using normalized DHEA concentration based on following formula: 100-([DHEA] of compound/[DHEA] of positive control *100).

[3] = target: T1, CYP17 (human testicular microsome); assay: CYP17 enzymatic assay (IC50) (Biological Example 4); type: biochemical; conditions: human testicular microsome
[4] = target: T2, CYP17 (H295R cells) (Homo sapiens, UniProt P05093); assay: CYP17 cellular assay (IC50), testosterone in H295R cells (Biological Example 7); type: cell-based; conditions: H295R cells, testosterone; read-out: CYP17 cellular assay IC50 (Biological Example No. 7)
T2 construct: endogenous in cells; host or cells: H295R cells
T2 sequence (P05093 1-508): T1 sequence (P05093 1-508)
Procedure, shortened: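 H295R cells cultured 24 h, then exposed to compound at 100, 10, 1, 0.1 nM final in serum-free DMEM/F-12 with ITS+ and 0.1% methanol for 24 h at 37 °C. Medium testosterone measured by ELISA and plotted against compound concentration.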

[5] = test system: rat Cyp11B enzyme (rat adrenal mitochondria); assay: CYP11B enzymatic assay (% inhibition at 100 nM) (Biological Example 9); type: biochemical; conditions: for CYP11B enzymatic assay % inhibition at 100 nM (Biological Example No. 9): compound at 100 nM; for Biological Example No. 9: CYP11B percent inhibition at 100 nM: 100 nM compound, cortisol by ELISA
Procedure, shortened: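 Sprague Dawley rat adrenal mitochondria were incubated with compound at 100 nM, 0.5 mM NADPH and 0.1 μM 11-deoxycortisol (pH 7.4 Tris buffer) for 60 min at 37 °C. Cortisol was measured by ELISA and corrected by subtracting the no-NADPH background. % inhibition is relative to the no-compound reaction.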

[6] = target: T1, CYP17 (human testicular microsome); assay: CYP17 enzymatic assay (% inhibition at 1 nM) (Biological Example 12); type: biochemical; conditions: compound at 1 nM, read-out: CYP17 enzymatic assay % inhibition at 1 nM (Biological Example No. 12)
Protocol: The assays were performed in 96-well plates. Typical assays were carried out in total 100 μL volume that included test compounds at 1 nM concentration, 1× reaction buffer, 0.5 mM NADPH, 1 μM 17α-hydroxypregnenolone, and 2.5 μL of human testicular microsome (Celsis. Cat #S00110). Reaction without test compound served as a positive control. Reactions were allowed to incubate at 37° C. for 90 min with gentle shaking. The reaction was stopped by directly applying the enzymatic reaction mixture to ELISA plate for evaluation of DHEA concentration according to manufacturer's protocol (IBL America). A standard curve (OD450 vs. DHEA concentration) was generated using purified DHEA. […] Percent inhibition (inhibition %) of the compound was calculated using normalized DHEA concentration based on following formula: 100−([DHEA] of compound/[DHEA] of positive control*100).

[7] = target: T3, Cyp21 enzyme (Human HEK 293-Cyp21 stable transfected cells) (Homo sapiens, UniProt P08686); assay: CYP21-HEK293 enzymatic assay (% inhibition at 100 nM) (Biological Example 10); type: cell-based; conditions: HEK 293-Cyp21 cells
T3 construct: expressed in transfected cells
T3 sequence (P08686 1-495): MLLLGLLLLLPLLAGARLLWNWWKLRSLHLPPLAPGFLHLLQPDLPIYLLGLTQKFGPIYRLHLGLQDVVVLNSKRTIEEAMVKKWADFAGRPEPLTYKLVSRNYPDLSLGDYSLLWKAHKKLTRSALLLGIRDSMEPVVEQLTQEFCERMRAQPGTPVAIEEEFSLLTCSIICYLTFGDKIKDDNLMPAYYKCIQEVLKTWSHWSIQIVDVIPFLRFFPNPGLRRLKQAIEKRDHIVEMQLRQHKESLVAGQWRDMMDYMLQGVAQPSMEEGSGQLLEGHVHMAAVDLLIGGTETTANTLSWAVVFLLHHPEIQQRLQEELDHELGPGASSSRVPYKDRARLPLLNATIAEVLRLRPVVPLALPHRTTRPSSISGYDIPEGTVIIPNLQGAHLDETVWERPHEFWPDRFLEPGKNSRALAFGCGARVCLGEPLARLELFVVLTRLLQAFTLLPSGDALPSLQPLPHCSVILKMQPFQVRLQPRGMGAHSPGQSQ
Protocol: Proceeding using methods similar to those described in Biological Example 11, the percent inhibition at 100 nM was measured.
This assay was used to determine compound activity against Cyp21 enzyme. Human HEK 293-Cyp21 stable transfected cells (maintained in complete growth media DMEM+10% FBS, supplemented with 125 ug/mL Hygromycin) were seeded in a 96-well plate at 20,000 cells/well/100 uL in DMEM plus 10% FBS and allowed to attach overnight. The next day, 20 μL medium was carefully removed and 10 μL of 10× pre-made compounds in DMEM+10% FBS+10% methanol was transferred to the wells to final concentrations of 1000, 100, 10, 1, or 0.1 nM. Mock treatment was 1% methanol in growth media and the cells were left at 37° C., 5% CO2 for 5 hr. After the incubation, 10 μL of substrate progesterone (Sigma) was added to the wells to make a final concentration of 10 μM. The cells were incubated the cells at 37° C. for 20 hr. At the end of incubation, 90 μL of conditioned media was removed to measure DOC level by ELISA.
Preparation of the DOC ELISA: 100 μL of coating buffer (0.025M PBS pH 7.4) containing 200 ng/mL DOC-3-carboxymethyloxime-BSA (Steraloids. inc, Cat#3469-000) was added to each well of a 96-well plate and incubated overnight at 4° C. The next day, the plates were washed twice with 250 μl of wash solution (0.015M PBS pH 7.4 containing 0.05% Tween 20). After being washed, the wells were blocked with 250 μL blocking buffer (3% BSA in 0.025M PBS, pH 7.4) at 37° C. for 2 h. The plates were washed again 3 times as before, and then 90 μL of sample /standards (prepared in complete growth media) was added into the appropriate wells followed by 10 μL of antibody solution (1:450 rabbit anti-DOC in 0.6% BSA/PBS). The plates were incubated at room temperature for 2 h on a shaker. The contents of the wells were removed and the plate was washed 4 times. After the final wash, 100 μL of secondary antibody (1:12000 HRP-goat-anti-rabbit IgG conjugate 0.6% BSA/PBS) was added into each well. The plate was incubated at 30° C. for 45 min. The plate was washed again 4 times and 100 μL of TMB substrate solution was added to each well. The plate was incubated at room temperature for 10 min. 100 μL of stop solution was added to each well and the optical density was read at 450 nm.
The mean absorbance value for each sample was used to determine the corresponding concentration from the standard curve. Data was analyzed with “log(antagonist) vs response variable slope” under “non-linear regression analysis” using Prism5 software.

[8] = Human liver microsome stability assay (Biological Example 8b); conditions: liver microsomes, pH 7.4
Protocol: The reaction was started with addition of excess NADPH (5 mg/mL, 15 μL in 0.1 M potassium phosphate buffer, 1.0 mM EDTA, pH 7.4), the total volume is 45 μL (compound final concentration was 1 μM). […] 50 μL of the supernatant was transferred from each well into a 96-well sample plate containing 50 μL of ultra-pure water (Millipore) for LC-MS/MS analysis.

[9] = 10 nM compound, DHEA by ELISA, read-out: Biological Example No. 5: CYP17 percent inhibition at 10 nM (version 1)
[10] = DHEA by ELISA, read-out: Biological Example No. 4: CYP17 enzymatic assay IC50
[11] = compound at 100 nM, read-out: CYP21-HEK293 enzymatic assay % inhibition at 100 nM (Biological Example No. 10)
[12] = 100 nM compound, read-out: Biological Example No. 10: CYP21-HEK293 percent inhibition at 100 nM

| SMILES | half-life at 1 μM [1] [min] | inhibition at 0.01 µM [2, 9] [%] | IC50 [3, 10] [nM] | other results |
| --- | --- | --- | --- | --- |
| CCCOc1cncc(C2=CC[C@H]3[C@@H]4CCN5CCCCC[C@]5(C)[C@H]4CC[C@]23C)c1 [Compound 46, (11aR,13aS)-11a,13a-dimethyl-1-(5-propoxypyridin-3-yl)-3a,3b,4,5,7,8,9,10,11,11a,11b,12,13,13a-tetradecahydro-3H-azepino[2,1-a]cyclopenta[f]isoquinoline] | 10 to 60 | 50 to 80 | – | – |
| Cc1cncc(C2=CC[C@H]3[C@@H]4CC(=O)C5CCCC[C@]5(C)[C@H]4CC[C@]23C)c1 (stereo partly drawn) [Compound 71, (10R,13S)-10,13-dimethyl-17-(5-methylpyridin-3-yl)-2,3,4,5,7,8,9,11,12,13,14,15-dodecahydro-1H-cyclopenta[a]phenanthren-6(10H)-one] | 1 to 10 | – | < 11 | – |
| COc1cncc(C2=CC[C@H]3[C@@H]4CC(=O)C5CCCC[C@]5(C)[C@H]4CC[C@]23C)c1 (stereo partly drawn) [Compound 72, (10R,13S)-17-(5-methoxypyridin-3-yl)-10,13-dimethyl-2,3,4,5,7,8,9,11,12,13,14,15-dodecahydro-1H-cyclopenta[a]phenanthren-6(10H)-one] | 1 to 10 | – | < 11 | – |
| CCc1cncc(C2=CC[C@H]3[C@@H]4CCN5CCCCC[C@]5(C)[C@H]4CC[C@]23C)c1 [Compound 48, (11aR,13aS)-1-(5-ethylpyridin-3-yl)-11a,13a-dimethyl-3a,3b,4,5,7,8,9,10,11,11a,11b,12,13,13a-tetradecahydro-3H-azepino[2,1-a]cyclopenta[f]isoquinoline] | 1 to 10 | 1 to 50 | – | – |
| Cc1ccncc1C1=CC[C@H]2[C@@H]3CC[C@H]4CC(=O)NCC[C@]4(C)[C@H]3CC[C@]12C [Compound 462, (5aS,5bS,7aS,10aS,10bR,12aS)-5a,7a-dimethyl-8-(4-methylpyridin-3-yl)-3,4,5,5a,5b,6,7,7a,10,10a,10b,11,12,12a-tetradecahydrocyclopenta[5,6]naphtho[1,2-d]azepin-2(1H)-one] | – | – | – | IC50 [4]: < 15 nM; CYP11B enzymatic assay % inhibition at 100 nM (Biological Example No. 9) [5]: T (T means the compound had a percent inhibition of less than 32% when tested at 100 nM); inhibition at 0.001 µM [6]: 10 to 50%; inhibition at 0.1 µM [7, 11]: < 30% |
| Cc1cncc(C2=CC[C@H]3[C@@H]4CC[C@H]5COC(=O)CC[C@]5(C)[C@H]4CC[C@]23C)c1 [Compound 119, (5aR,5bS,7aS,10aS,10bR,12aR)-5a,7a-dimethyl-8-(5-methylpyridin-3-yl)-5,5a,5b,6,7,7a,10,10a,10b,11,12,12a-dodecahydro-1H-cyclopenta[5,6]naphtho[2,1-c]oxepin-3(4H)-one] | 1 to 10 | 1 to 50 | – | – |
| Cc1cncc(C2=CC[C@H]3[C@@H]4CC(O)C5CCCC[C@]5(C)[C@H]4CC[C@]23C)c1 (stereo partly drawn) [Compound 70, (10R,13S)-10,13-dimethyl-17-(5-methylpyridin-3-yl)-2,3,4,5,6,7,8,9,10,11,12,13,14,15-tetradecahydro-1H-cyclopenta[a]phenanthren-6-ol] | 1 to 10 | – | < 11 | – |
| CN1CC[C@@]2(C)C(=CC1=O)CC[C@H]1C3=CC=C(c4cccnc4)[C@@]3(C)CC[C@@H]12 [Compound 158] | – | > 80 | < 11 | half-life at 1 μM [8]: 1 to 50 min; Biological Example No. 9: CYP11B percent inhibition at 100 nM [5]: T (T means the compound had a percent inhibition of less than 32% when tested at 100 nM); inhibition at 0.1 µM [7, 12]: ≥ 30% |
| C[C@]12CCNC(=O)C=C1CC[C@@H]1[C@@H]2CC[C@]2(C)C(n3ncnn3)=CC[C@@H]12 [Compound 63] | 1 to 10 | > 80 | – | – |
| C[C@]12CC[C@H]3[C@@H](CC[C@H]4CC(=O)CC[C@@]43C)C1=CC=C2c1cccnc1 [Compound 164, (5S,8R,9S,10S,13S)-10,13-dimethyl-17-(pyridin-3-yl)-4,5,6,7,8,9,10,11,12,13-decahydro-1H-cyclopenta[a]phenanthren-3(2H)-one] | – | > 80 | < 11 | half-life at 1 μM [8]: 1 to 50 min; Biological Example No. 9: CYP11B percent inhibition at 100 nM [5]: U (U means the compound had a percent inhibition of greater than or equal to 32%); inhibition at 0.1 µM [7, 12]: ≥ 30% |
| C[C@]12CC[C@H]3[C@@H](CC[C@H]4CC(=O)NCC[C@@]43C)C1=CC=C2n1ccnc1 [Compound 447, (5aS,5bS,7aS,10bR,12aS)-8-(1H-imidazol-1-yl)-5a,7a-dimethyl-3,4,5,5a,5b,6,7,7a,10b,11,12,12a-dodecahydrocyclopenta[5,6]naphtho[1,2-d]azepin-2(1H)-one] | – | – | – | half-life at 1 μM [8]: 1 to 50 min; CYP11B enzymatic assay % inhibition at 100 nM (Biological Example No. 9) [5]: na (“na” means the compound was not active under the conditions tested); inhibition at 0.01 µM ([2]; compound at 10 nM, read-out: CYP17 enzymatic assay % inhibition at 10 nM (Biological Example No. 5)): > 80%; IC50 ([3]; read-out: CYP17 enzymatic assay IC50 (Biological Example No. 4)): < 11 nM; inhibition at 0.1 µM [7, 11]: ≥ 30% |
